Assay [1] deals with A431. Briefly: Cell proliferation study (CellTiter-Glo), A431 WT. The class given is cell-based. The conditions noted are these: Homo sapiens, A-431; A431 cells, 72 hrs, CTG. On the procedure:
(§1) • DMEM medium (Gibco, 11965118) • RPMI1640 medium (Gibco, 11875119) • Fetal bovine serum (FBS) (GBICO, Cat #10099-141) • CellTiter-Glo® luminescent cell viability assay kit (Promega, Cat #G7572) • Black transparent flat-bottom 96-well plate (Corning®, Cat #3603)
(§2) • SpectraMax multi-label microplate reader MD, 2104-0010A; • Carbon dioxide incubator, Thermo Scientific 3100 series; • Biological safety cabinet, Thermo Scientific, 1300 series model A2; • Inverted microscope, Olympus, CKX41SF; • Siemens refrigerator, KK25E76TI.
(§3) • (1) Cells in the logarithmic growth phase were harvested and counted using a […]. The cell viability was determined by the trypan blue dye exclusion method to ensure cell viability above 90%. • (2) The cell concentration was adjusted to reach a desired final density; 90 μL of cell suspension was added to a 96-well plate. • (3) The cells were incubated overnight in the 96-well plate at 37° C., 5% CO2 and with 95% humidity.
(§4) • (1) 10 μL of PBS was added to each well of the TO plate containing the cells, • (2) The CTG reagent was thawed and the cell plate was equilibrated to room temperature for 30 min. • (3) An equal volume of CTG solution was added to each well. • (4) The cells were lysed by shaking on an orbital shaker for 5 min. • (5) The cell plate was left to stand at room temperature for 20 min to stabilize the fluorescence signal. • (6) The fluorescence signal values of TO were read.
(§5) • (1) According to the compound information table, a corresponding volume of DMSO was added to the corresponding compound powder to prepare a 10 mM stock solution. • (2) A 1000-fold, 3.16-fold-diluted compound solution was prepared. • (3) The 1000× diluted compound solution was diluted 100-fold with PBS to prepare a 10-fold compound solution with a maximum concentration of 10 μM, including 9 concentrations, with 3.16-fold dilution, and 10 μL of the medicament solution was added to each well of the 96-well plate to seed the cells. Triplicate wells were set for each compound concentration, with a final concentration of DMSO being 0.1%. • (4) The cells were placed in the 96-well plate containing the medicament at 37° C., 5% CO2 and with 95% humidity, and cultured for 72 hrs before CTG analysis,
(§6) • (1) The CTG reagent was thawed and the cell plate was equilibrated to room temperature for 30 min. • (2) An equal volume of CTG solution was added to each well. • (3) The cells were lysed by shaking on an orbital shaker for 5 min. • (4) The cell plate was left to stand at room temperature for 20 min to stabilize the fluorescence signal. • (5) The fluorescence values were read.
(§7) Data were analyzed using GraphPad Prism 7.0 software and fitted data were regressed using non-linear S-curves to obtain dose-response curves from which IC50 values (in nM) were calculated.
A general note: ATP-based viability assays read luminescence as a measure of living cells.

Assay [2] deals with Ba/F3 EGFR-L858R-C797S (Homo sapiens, UniProt P00533, C797S/L858R, cells depend on it). Briefly: Cell proliferation study (CellTiter-Glo), Ba/F3 EGFR-L858R-C797S. The class given is cell-based. The conditions noted are these: 72 hrs, CTG, read-out: L858R/C797S IC50. On the procedure: as §1, §2, §3, §4, §5, §6, §7
Ba/F3 EGFR-L858R-C797S, sequence (P00533 whole entry C797S/L858R): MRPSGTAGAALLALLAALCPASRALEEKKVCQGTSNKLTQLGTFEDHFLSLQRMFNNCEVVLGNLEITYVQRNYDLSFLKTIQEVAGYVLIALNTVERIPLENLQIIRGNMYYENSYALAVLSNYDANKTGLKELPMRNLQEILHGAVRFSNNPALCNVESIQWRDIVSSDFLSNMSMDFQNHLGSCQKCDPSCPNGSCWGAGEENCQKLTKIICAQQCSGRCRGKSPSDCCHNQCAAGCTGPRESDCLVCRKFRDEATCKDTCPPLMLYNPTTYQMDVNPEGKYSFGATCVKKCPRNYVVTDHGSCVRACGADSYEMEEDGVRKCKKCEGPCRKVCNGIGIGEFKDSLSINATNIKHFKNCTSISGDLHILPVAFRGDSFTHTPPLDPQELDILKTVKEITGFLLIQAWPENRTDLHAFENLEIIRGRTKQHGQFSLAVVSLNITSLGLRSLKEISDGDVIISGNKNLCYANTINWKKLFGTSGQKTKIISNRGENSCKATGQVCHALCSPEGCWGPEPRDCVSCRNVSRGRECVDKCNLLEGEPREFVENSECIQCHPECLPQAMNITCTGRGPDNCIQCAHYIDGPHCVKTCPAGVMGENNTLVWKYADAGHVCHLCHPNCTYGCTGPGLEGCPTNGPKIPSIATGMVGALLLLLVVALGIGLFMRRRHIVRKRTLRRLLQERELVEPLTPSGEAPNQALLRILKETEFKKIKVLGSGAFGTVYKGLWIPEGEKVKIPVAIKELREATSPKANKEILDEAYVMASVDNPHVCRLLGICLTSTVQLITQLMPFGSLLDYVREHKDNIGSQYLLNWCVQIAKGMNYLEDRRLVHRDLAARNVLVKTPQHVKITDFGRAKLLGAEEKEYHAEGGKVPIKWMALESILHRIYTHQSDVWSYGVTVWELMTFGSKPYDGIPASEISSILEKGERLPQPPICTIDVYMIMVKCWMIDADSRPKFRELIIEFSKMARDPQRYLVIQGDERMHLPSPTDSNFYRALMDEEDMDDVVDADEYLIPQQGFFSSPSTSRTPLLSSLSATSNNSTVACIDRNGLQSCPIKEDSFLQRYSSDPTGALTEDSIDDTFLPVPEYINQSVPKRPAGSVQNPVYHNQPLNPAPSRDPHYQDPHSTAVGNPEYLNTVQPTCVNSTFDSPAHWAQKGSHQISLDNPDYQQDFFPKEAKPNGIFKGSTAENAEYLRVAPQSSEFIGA
The target in assay [3] is Ba/F3 EGFR-Del19-C797S (Homo sapiens, UniProt P00533, C797S, cells depend on it, form not given). The assay can be described thus: Cell proliferation study (CellTiter-Glo), Ba/F3 EGFR-Del19-C797S. The class given is cell-based. The conditions noted are these: 72 hrs, CTG, read-out: Del19/C797S IC50. On the procedure:
as §1, §2, §3, §4, §5, §6, §7

Assay [4] addresses Ba/F3 EGFR-L858R (Homo sapiens, UniProt P00533, L858R, cells depend on it). The assay can be described thus: Cell proliferation study (CellTiter-Glo), Ba/F3 EGFR-L858R. The format is cell-based. The conditions noted are these: 72 hrs, CTG, read-out: L858R IC50. The method, then: as §1, §2, §3, §4
(§8) • (1) According to the compound information table, a corresponding volume of DMSO was added to the corresponding compound powder to prepare a 10 mM stock solution. • (2) A 1000-fold, 3.16-fold-diluted compound solution was prepared. • (3) The 1000× diluted compound solution was diluted 100-fold with PBS to prepare a 10-fold compound solution with a maximum concentration of 10 μM, including 9 concentrations, with 3.16-fold dilution, and 10 μL of the medicament solution was added to each well of the 96-well plate to seed the cells. […]
as §6, §7

Assay [5] concerns the target Ba/F3 EGFR-Del19 (Homo sapiens, UniProt P00533, cells depend on it, form not given). Briefly: Cell proliferation study (CellTiter-Glo), Ba/F3 EGFR-Del19. The class given is cell-based. To be noted: 72 hrs, CTG, read-out: Del19 IC50. The method, then:
as §1, §2, §3, §4, §8, §6, §7

For assay [6], the system named is EGFR-Mutated Advanced Non-Small-Cell Lung Cancer. The conditions noted are these: patients, untreated EGFR-mutated advanced NSCLC; cited from earlier work.

Here are results for two compounds from US20240360102A1, “PYRIMIDINE-4,6-DIAMINE DERIVATIVE, A PREPARATION METHOD THEREFOR, AND A PHARMACEUTICAL APPLICATION THEREOF” (Abbisko Therapeutics Co., Ltd., priority 2021, published 2024).

SMILES strings stand for the structures.

Ba/F3 EGFR-Del19, sequence (P00533 with tags, fused parts or gaps DEL746-750): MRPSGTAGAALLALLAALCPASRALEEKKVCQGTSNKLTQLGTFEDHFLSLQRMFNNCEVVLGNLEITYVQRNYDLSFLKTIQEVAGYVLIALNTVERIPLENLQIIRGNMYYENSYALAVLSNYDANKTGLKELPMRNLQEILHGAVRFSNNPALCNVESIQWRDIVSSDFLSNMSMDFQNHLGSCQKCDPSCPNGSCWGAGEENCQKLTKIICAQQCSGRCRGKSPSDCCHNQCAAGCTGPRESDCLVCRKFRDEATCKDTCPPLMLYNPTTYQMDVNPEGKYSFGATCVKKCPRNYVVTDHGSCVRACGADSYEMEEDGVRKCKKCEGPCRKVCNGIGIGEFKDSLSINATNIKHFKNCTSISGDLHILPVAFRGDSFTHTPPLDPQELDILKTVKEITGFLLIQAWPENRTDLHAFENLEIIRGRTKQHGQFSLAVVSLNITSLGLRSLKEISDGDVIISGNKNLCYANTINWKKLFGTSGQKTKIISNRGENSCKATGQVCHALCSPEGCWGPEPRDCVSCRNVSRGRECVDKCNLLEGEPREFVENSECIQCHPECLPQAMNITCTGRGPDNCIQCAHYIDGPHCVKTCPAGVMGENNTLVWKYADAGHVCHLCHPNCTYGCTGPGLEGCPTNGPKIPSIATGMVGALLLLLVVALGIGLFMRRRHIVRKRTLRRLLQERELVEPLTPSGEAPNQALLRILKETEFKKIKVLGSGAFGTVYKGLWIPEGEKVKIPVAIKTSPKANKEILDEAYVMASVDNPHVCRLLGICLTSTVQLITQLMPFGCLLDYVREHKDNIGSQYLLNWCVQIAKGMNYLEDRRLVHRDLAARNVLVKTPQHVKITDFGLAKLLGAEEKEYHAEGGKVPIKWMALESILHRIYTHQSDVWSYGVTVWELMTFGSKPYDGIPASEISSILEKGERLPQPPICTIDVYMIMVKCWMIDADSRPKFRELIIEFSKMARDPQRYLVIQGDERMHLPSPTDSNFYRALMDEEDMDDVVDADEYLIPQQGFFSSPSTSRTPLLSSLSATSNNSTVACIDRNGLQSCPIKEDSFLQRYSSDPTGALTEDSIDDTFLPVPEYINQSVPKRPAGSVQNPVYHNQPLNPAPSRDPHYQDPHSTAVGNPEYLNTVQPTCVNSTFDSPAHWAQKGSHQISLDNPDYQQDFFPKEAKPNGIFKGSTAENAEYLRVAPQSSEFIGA
Ba/F3 EGFR-L858R, sequence (P00533 whole entry L858R): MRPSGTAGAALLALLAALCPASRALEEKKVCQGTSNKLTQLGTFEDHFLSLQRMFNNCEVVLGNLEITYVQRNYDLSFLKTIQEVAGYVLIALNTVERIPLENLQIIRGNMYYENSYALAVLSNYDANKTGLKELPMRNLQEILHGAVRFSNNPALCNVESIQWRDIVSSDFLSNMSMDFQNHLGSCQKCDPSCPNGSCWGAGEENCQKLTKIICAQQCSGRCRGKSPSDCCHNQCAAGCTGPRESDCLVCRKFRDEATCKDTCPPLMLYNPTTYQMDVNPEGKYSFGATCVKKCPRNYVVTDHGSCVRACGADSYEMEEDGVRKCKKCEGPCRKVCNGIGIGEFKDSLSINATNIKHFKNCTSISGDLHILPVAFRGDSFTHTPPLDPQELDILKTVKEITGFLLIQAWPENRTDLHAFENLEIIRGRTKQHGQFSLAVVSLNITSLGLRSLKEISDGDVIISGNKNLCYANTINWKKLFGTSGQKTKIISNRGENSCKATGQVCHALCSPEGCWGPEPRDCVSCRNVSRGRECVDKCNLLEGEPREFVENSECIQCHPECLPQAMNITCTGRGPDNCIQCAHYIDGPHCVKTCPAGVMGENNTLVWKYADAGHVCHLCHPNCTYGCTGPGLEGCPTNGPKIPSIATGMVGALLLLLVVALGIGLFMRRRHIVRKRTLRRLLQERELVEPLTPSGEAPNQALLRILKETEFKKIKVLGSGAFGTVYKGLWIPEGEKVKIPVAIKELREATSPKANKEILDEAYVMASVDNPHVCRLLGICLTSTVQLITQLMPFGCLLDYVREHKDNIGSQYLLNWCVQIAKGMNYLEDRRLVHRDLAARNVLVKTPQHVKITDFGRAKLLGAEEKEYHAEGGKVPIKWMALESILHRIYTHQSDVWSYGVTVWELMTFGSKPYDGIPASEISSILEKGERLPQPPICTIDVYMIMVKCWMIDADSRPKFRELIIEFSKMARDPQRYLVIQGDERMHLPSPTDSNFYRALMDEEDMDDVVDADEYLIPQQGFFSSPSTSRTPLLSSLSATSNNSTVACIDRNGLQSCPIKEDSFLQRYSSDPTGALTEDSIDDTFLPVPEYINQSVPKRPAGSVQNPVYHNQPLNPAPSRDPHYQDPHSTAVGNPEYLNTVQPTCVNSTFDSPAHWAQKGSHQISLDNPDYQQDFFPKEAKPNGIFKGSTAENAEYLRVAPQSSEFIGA
Ba/F3 EGFR-Del19-C797S, sequence (P00533 with tags, fused parts or gaps DEL746-750/C797S, form open): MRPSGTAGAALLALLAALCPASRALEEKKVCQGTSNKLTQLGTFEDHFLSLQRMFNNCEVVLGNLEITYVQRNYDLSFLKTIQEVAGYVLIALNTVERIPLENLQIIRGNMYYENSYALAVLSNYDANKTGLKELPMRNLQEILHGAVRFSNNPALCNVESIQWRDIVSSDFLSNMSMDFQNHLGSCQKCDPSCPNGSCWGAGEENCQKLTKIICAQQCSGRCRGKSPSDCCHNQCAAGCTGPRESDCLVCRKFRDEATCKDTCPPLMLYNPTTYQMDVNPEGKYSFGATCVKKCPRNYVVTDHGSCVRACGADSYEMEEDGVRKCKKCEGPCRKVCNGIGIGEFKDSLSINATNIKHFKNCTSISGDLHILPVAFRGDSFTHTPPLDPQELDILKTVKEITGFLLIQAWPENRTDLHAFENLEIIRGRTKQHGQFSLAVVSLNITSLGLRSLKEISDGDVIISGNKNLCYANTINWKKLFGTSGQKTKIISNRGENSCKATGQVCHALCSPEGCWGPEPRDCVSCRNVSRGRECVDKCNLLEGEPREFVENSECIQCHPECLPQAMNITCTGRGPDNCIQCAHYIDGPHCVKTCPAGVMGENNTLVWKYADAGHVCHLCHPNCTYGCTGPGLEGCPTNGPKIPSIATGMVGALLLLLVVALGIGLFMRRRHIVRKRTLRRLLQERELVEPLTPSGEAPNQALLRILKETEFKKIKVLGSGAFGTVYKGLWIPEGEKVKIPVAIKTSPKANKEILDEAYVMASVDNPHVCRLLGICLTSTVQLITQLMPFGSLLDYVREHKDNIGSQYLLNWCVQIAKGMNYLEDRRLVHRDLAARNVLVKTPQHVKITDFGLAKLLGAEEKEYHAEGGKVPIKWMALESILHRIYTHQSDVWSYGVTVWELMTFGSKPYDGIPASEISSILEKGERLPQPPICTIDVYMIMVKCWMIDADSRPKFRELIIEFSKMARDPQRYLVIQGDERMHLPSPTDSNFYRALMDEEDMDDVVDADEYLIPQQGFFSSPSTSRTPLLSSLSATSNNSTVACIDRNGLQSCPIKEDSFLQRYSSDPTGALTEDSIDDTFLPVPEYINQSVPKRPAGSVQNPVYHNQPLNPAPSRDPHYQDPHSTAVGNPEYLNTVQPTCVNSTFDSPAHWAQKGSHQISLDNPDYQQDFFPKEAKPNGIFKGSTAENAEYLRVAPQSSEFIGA

As a reminder, the IC50 is the concentration at which inhibition is half-maximal. Compound `COc1cc(N2CCC(N3CCN(C)CC3)CC2)c(C)cc1Nc1cc(Nc2ccnc(-c3ccccc3F)c2)ncn1` [Example 1, N^4-(2-(2-fluorophenyl)pyridin-4-yl)-N^6-(2-methoxy-5-methyl-4-(4-(4-methylpiperazin-1-yl)piperidin-1-yl)phenyl)pyrimidine-4,6-diamine] registered an IC50 in assay [1] of 182 nM. Moreover, the GI50 in assay [2] is 9.1 nM; in assay [3] it was 3.7 nM; in assay [4] it was 3 nM; in assay [5], 3.4 nM.
`C=CC(=O)Nc1cc(Nc2nccc(-c3cn(C)c4ccccc34)n2)c(OC)cc1N(C)CCN(C)C` [osimertinib]: in assay [6], the overall survival is 38.6 months and the progression-free survival is on record as 18.9 months.
